Laboratory results taken from ChEMBL document CHEMBL1201862, “PubChem BioAssay data set” (2004).
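In this assay, cells in 96-well plates receive the compound at five concentrations for 48 hours. Endpoints are linearly interpolated between the surrounding concentrations. The concentration for 50% growth inhibition is given as GI50.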 Calls of active or inactive are those of the source. Rule as the data show it: active = GI50 up to about 1.1 µM and inactive = higher.

Legend:
Experiment in all cases: NCI tumour cell line growth inhibition, 48 h
A498 = tested on: A498
A549 = tested on: A549
CAKI-1 = tested on: CAKI-1
CCRF-CEM = tested on: CCRF-CEM
COLO 205 = tested on: COLO 205
DLD-1 = tested on: DLD-1
DMS-114 = tested on: DMS-114
DMS-273 = tested on: DMS-273
EKVX = tested on: EKVX
HCC 2998 = tested on: HCC 2998
HCT-116 = tested on: HCT-116
HCT-15 = tested on: HCT-15
HL-60 = tested on: HL-60
HOP-18 = tested on: HOP-18
HOP-62 = tested on: HOP-62
HOP-92 = tested on: HOP-92
HT-29 = tested on: HT-29
IGROV-1 = tested on: IGROV-1
K562 = tested on: K562
KM-20L2 = tested on: KM-20L2
KM12 = tested on: KM12
LOX IMVI = tested on: LOX IMVI
M19-MEL = tested on: M19-MEL
MCF7 = tested on: MCF7
MOLT-4 = tested on: MOLT-4
Malme-3M = tested on: Malme-3M
NCI-H226 = tested on: NCI-H226
NCI-H23 = tested on: NCI-H23
NCI-H460 = tested on: NCI-H460
NCI-H522 = tested on: NCI-H522
NCI/ADR-RES = tested on: NCI/ADR-RES
OVCAR-3 = tested on: OVCAR-3
OVCAR-4 = tested on: OVCAR-4
OVCAR-5 = tested on: OVCAR-5
OVCAR-8 = tested on: OVCAR-8
RPMI-8226 = tested on: RPMI-8226
RXF 393 = tested on: RXF 393
SF-268 = tested on: SF-268
SF-295 = tested on: SF-295
SF-539 = tested on: SF-539
SK-MEL-28 = tested on: SK-MEL-28
SK-MEL-2 = tested on: SK-MEL-2
SK-MEL-5 = tested on: SK-MEL-5
SK-OV-3 = tested on: SK-OV-3
SN12C = tested on: SN12C
SNB-19 = tested on: SNB-19
SNB-75 = tested on: SNB-75
SNB-78 = tested on: SNB-78
SW-620 = tested on: SW-620
U-251 = tested on: U-251
UACC-257 = tested on: UACC-257
UACC-62 = tested on: UACC-62
UO-31 = tested on: UO-31
XF498 = tested on: XF498
SR = tested on: SR
786-0 = tested on: 786-0
ACHN = tested on: ACHN
LXFL 529 = tested on: LXFL 529
M14 = tested on: M14
TK-10 = tested on: TK-10

Measured: GI50

NC1CCCCC1.O=P(O)(O)C(CSc1ccccc1)P(=O)(O)O
inactive: A498 > 100 µM | A549 > 100 µM | CAKI-1 > 100 µM | CCRF-CEM > 100 µM | COLO 205 > 100 µM | DLD-1 > 100 µM | DMS-114 > 100 µM | DMS-273 > 100 µM | EKVX > 100 µM | HCC 2998 > 100 µM | HCT-116 > 100 µM | HL-60 > 100 µM | HOP-18 > 100 µM | HOP-62 > 100 µM | HOP-92 > 100 µM | HT-29 > 100 µM | IGROV-1 > 100 µM | K562 > 100 µM | KM-20L2 > 100 µM | KM12 > 100 µM | LOX IMVI > 100 µM | M19-MEL > 100 µM | MCF7 > 100 µM | MOLT-4 > 100 µM | Malme-3M > 100 µM | NCI-H226 > 100 µM | NCI-H23 > 100 µM | NCI-H460 > 100 µM | NCI-H522 > 100 µM | NCI/ADR-RES > 100 µM | OVCAR-3 47.9 µM | OVCAR-4 > 100 µM | OVCAR-5 > 100 µM | OVCAR-8 > 100 µM | RPMI-8226 > 100 µM | RXF 393 > 100 µM | SF-268 > 100 µM | SF-295 > 100 µM | SF-539 > 100 µM | SK-MEL-28 > 100 µM | SK-MEL-2 > 100 µM | SK-MEL-5 > 100 µM | SK-OV-3 > 100 µM | SN12C > 100 µM | SNB-19 > 100 µM | SNB-75 > 100 µM | SNB-78 > 100 µM | SW-620 > 100 µM | U-251 > 100 µM | UACC-257 > 100 µM | UACC-62 > 100 µM | UO-31 > 100 µM | XF498 > 100 µM
> 100 µM: HCT-15

O=C(OC/C=C1C=C(OC(=O)c2ccccc2)/C(=N/N(C(=O)c2ccccc2)c2ccccc2)O\1)c1ccccc1
active: CAKI-1 < 0.01 µM | HCC 2998 < 0.01 µM | HOP-18 < 0.01 µM | K562 < 0.01 µM | KM12 < 0.01 µM | MOLT-4 < 0.01 µM | NCI-H226 0.512 µM | RPMI-8226 < 0.01 µM | SNB-19 < 0.01 µM | SR < 0.01 µM
inactive: DMS-114 12.8 µM | RXF 393 2.12 µM | SNB-78 26.3 µM | XF498 15.8 µM

COc1ccccc1NC(=O)/C(=C/c1ccccc1)C(C)=O
37.2 µM: HCT-15
inactive: 786-0 35.1 µM | A549 38 µM | ACHN 41.5 µM | CAKI-1 35.1 µM | CCRF-CEM 29.6 µM | DLD-1 38.8 µM | DMS-114 40.3 µM | EKVX 45.4 µM | HCC 2998 36.1 µM | HCT-116 43.3 µM | HL-60 23.6 µM | HOP-18 > 100 µM | HOP-62 59.4 µM | HOP-92 45.3 µM | HT-29 32.3 µM | IGROV-1 53 µM | K562 27.6 µM | KM12 36.9 µM | LOX IMVI 37.2 µM | LXFL 529 43.9 µM | M14 25.2 µM | M19-MEL 65.2 µM | MOLT-4 30.1 µM | Malme-3M 27.7 µM | NCI-H226 37.1 µM | NCI-H23 19.1 µM | NCI-H460 37.2 µM | NCI-H522 25.5 µM | OVCAR-3 38.6 µM | OVCAR-4 64.4 µM | OVCAR-5 > 100 µM | OVCAR-8 37.4 µM | RPMI-8226 35.5 µM | RXF 393 20.7 µM | SF-268 38.4 µM | SF-295 27.5 µM | SF-539 23.6 µM | SK-MEL-28 62.4 µM | SK-MEL-2 38.5 µM | SK-MEL-5 22.7 µM | SK-OV-3 44.5 µM | SN12C 42.2 µM | SNB-19 47.3 µM | SNB-78 10.8 µM | SR 36.6 µM | SW-620 36.9 µM | TK-10 44.9 µM | U-251 4.47 µM | UACC-257 47 µM | UACC-62 32.9 µM | UO-31 56.8 µM | XF498 19.4 µM

N#Cc1ccccc1NC(=O)c1ccccc1
> 100 µM: HCT-15
inactive: 786-0 > 100 µM | A498 > 100 µM | A549 > 100 µM | ACHN > 100 µM | CAKI-1 > 100 µM | COLO 205 > 100 µM | DLD-1 > 100 µM | DMS-273 > 100 µM | EKVX > 100 µM | HCT-116 > 100 µM | HOP-18 > 100 µM | HOP-62 > 100 µM | HOP-92 > 100 µM | HT-29 > 100 µM | IGROV-1 > 100 µM | K562 > 100 µM | KM-20L2 > 100 µM | KM12 > 100 µM | LOX IMVI > 100 µM | M19-MEL > 100 µM | Malme-3M > 100 µM | NCI-H23 > 100 µM | NCI-H460 > 100 µM | OVCAR-3 > 100 µM | OVCAR-4 > 100 µM | OVCAR-5 > 100 µM | OVCAR-8 > 100 µM | RPMI-8226 > 100 µM | RXF 393 > 100 µM | SF-268 > 100 µM | SF-295 > 100 µM | SF-539 > 100 µM | SK-MEL-28 > 100 µM | SK-MEL-2 > 100 µM | SK-MEL-5 > 100 µM | SN12C > 100 µM | SNB-19 > 100 µM | SNB-75 68.5 µM | SNB-78 > 100 µM | SR > 100 µM | SW-620 > 100 µM | TK-10 > 100 µM | U-251 > 100 µM | UACC-257 > 100 µM | UACC-62 > 100 µM | XF498 > 100 µM
